“Also recorded” adds a separate entry of the source. Read-outs that look alike come from different tables or passages of the source.
Experiments:
[1] = tested on: liver grafts; experiment: Bile output of cold-preserved liver grafts during ex vivo reperfusion; design: species or system rat; conditions: for bile output vs bilirubin-free control: hemin-untreated C16 grafts, 5 μmol/L bilirubin
Protocol: The rats injected with hemin or physiological saline were anesthetized by intraperitoneal injection of pentobarbital sodium (40 mg/kg body weight) and a PE-10 catheter for bile sample collection was inserted into the common bile duct of each rat. A 16-gauge catheter was inserted into the portal vein and 20 ml lactated Ringer's solution kept at 4° C. was passed through the catheter. Subsequently, rat livers were perfused with 20 ml University of Wisconsin solution (UW solution) of 4° C., excised and then preserved in the same solution at 4° C. for 16 hours. […] After cold preservation for 16 hours, each liver graft was reperfused via the portal vein with 95% oxygen-5% carbon dioxide-saturated Krebs-Henseleit buffer (pH 7.4, 37° C.) at 4 ml/min/g liver in the presence of 30 μmol/L sodium taurocholate (see Document 4).
In the hemin-treated liver grafts from Example 1, after 16-hour cold preservation (Hemin/C16), bile samples were collected from the common bile duct every 5 minutes during 40 minute reperfusion. […] The hemin-untreated grafts receiving no cold preservation (Control) and 16-hour cold preservation (C16) were also provided for the same measurement.
The grafts were reperfused with carbogen-saturated Krebs-Henseleit buffer (pH 7.4, 37° C.) supplemented with bilirubin (Sigma Chemical, Co.) and/or CO in combination with 1 μmol/L ZnPP. […] Similarly, hemin-untreated (a) and hemin-treated (b) grafts were provided in the absence of ZnPP for use as controls.
The same experiment as described in Example 4 was repeated, except that the doses of bilirubin and/or CO were varied. After being cold-preserved for 16 hours, the hemin-treated grafts were reperfused for 30 minutes in the presence of ZnPP using reperfusate containing various concentrations of bilirubin and/or CO, and then measured for the levels of bile output, bile salts and phospholipids in bile from the grafts, which were determined in percentages relative to those obtained by reperfusion in the absence of ZnPP.

[2] = tested on: liver grafts; experiment: Bile salts and phospholipids in bile of ex vivo reperfused liver grafts (enzyme inhibition assay); design: species or system rat; conditions: hemin-treated C16 grafts, 30 minute reperfusion, concentration of 5 μmol/L or less
Protocol: To examine whether bilirubin and/or CO could recover the HO-1-inducing effect inhibited by ZnPP, a strong HO activity inhibitor, the following experiment was carried out. The grafts were reperfused with carbogen-saturated Krebs-Henseleit buffer (pH 7.4, 37° C.) supplemented with bilirubin (Sigma Chemical, Co.) and/or CO in combination with 1 μmol/L ZnPP. […] The total amounts of bile salts and phospholipids in bile samples were measured by enzyme inhibition assay according to a reported method (see Document 23).
An attempt was made to examine dose-dependent effects of bilirubin and/or CO during co-perfusion. […] After being cold-preserved for 16 hours, the hemin-treated grafts were reperfused for 30 minutes in the presence of ZnPP using reperfusate containing various concentrations of bilirubin and/or CO, and then measured for the levels of bile output, bile salts and phospholipids in bile from the grafts, which were determined in percentages relative to those obtained by reperfusion in the absence of ZnPP.

[3] = tested on: liver grafts; experiment: Bilirubin-IXα concentration in bile of ex vivo reperfused liver grafts (ELISA, antibody 24G7); design: species or system rat
Protocol: (§1) The rats injected with hemin or physiological saline were anesthetized by intraperitoneal injection of pentobarbital sodium (40 mg/kg body weight) and a PE-10 catheter for bile sample collection was inserted into the common bile duct of each rat. A 16-gauge catheter was inserted into the portal vein and 20 ml lactated Ringer's solution kept at 4° C. was passed through the catheter. Subsequently, rat livers were perfused with 20 ml University of Wisconsin solution (UW solution) of 4° C., excised and then preserved in the same solution at 4° C. for 16 hours. Since acute oxidative stress would eventually occur, as judged by intracellular hydroperoxide production which occurred concurrently with a reduction of bile formation, a time period of 16 hours was selected for preservation purposes. […]
In the hemin-treated liver grafts from Example 1, after 16-hour cold preservation (Hemin/C16), bile samples were collected from the common bile duct every 5 minutes during 40 minute reperfusion. The bile samples collected at 30 minutes after initiation of reperfusion were also measured for their bilirubin-IXα concentration by enzyme-linked immunosorbent assay detection using the monoclonal antibody 24G7 capable of recognizing both conjugated and unconjugated bilirubin fractions, as described in earlier documents (see Documents 21 and 22). […]

[4] = tested on: liver grafts; experiment: LDH released into hepatic venous perfusate of ex vivo reperfused liver grafts (liver cell damage); design: species or system rat
Protocol: As in the case of Example 5, after being cold-preserved for 16 hours, the hemin-treated grafts were reperfused for 30 minutes in the presence of ZnPP using reperfusate containing varying concentrations of bilirubin, and then measured for the amount of lactate dehydrogenase (LDH) released into the hepatic venous perfusate, which was indicative of liver cell damage in the grafts. For use as controls, hemin-untreated grafts receiving 16-hour cold preservation (C16) and hemin-treated grafts receiving 16-hour cold preservation (Hemin/C16) were provided in the absence of ZnPP. The amount of LDH was measured as described in an earlier document (see Document 24). […] The grafts were divided into the following test groups: (a) receiving 5 minute reperfusion with the bilirubin-containing buffer and subsequent 35 minute reperfusion in the absence of bilirubin, (b) receiving 15 minute reperfusion with the bilirubin-containing buffer and subsequent 25 minute reperfusion in the absence of bilirubin, and (c) receiving 40 minute perfusion with the bilirubin-containing buffer. As a control group (d), the cold-preserved grafts received only bilirubin-free perfusion for 40 minutes. Bile output was then measured over time for each group. Further, FIGS. 6(B) and (C) show the relationship between reperfusion time with the bilirubin-containing buffer and bile output from the grafts and the relationship between reperfusion time and venous LDH concentration, respectively.

[5] = tested on: liver grafts; experiment: Liver isograft transplantation model: blood levels of AST, ALT and LDH (graft injury); assay type: in vivo, rat; conditions: washing with irrigation solution containing a higher concentration of bilirubin than 5 to 10 μmol/L
Protocol: (§2) To examine in vivo effects of HO-1 preconditioning, a model experiment for liver isograft transplantation was carried out. Male inbred Lewis rats of 220-280 g were allowed to drink water without any restriction, fasted for 24 hours before the experiment, and provided for use as donors and recipients for liver transplantation. In HO-1 preconditioning groups, the rats were hemin-treated at 18 hours before graft preparation in the same manner as used in the ex vivo experiment of Example 1. Liver transplantation was performed according to the technique developed by Kamada (see Document 25) with minor modifications. More specifically, the donors were anesthetized by intraperitoneal injection of pentobarbital sodium (40 mg/kg body weight) and then laparotomized. […]
(§3) In light of Example 7 showing that short-term washing with bilirubin was effective for recovery of post-reperfusion stasis and cell injury in the liver grafts cold-preserved for 16 hours, further attempts were made to examine the in vivo effect of bilirubin washing against post-transplantation injury in the cold-preserved grafts. […] The level of bile output was measured at 30 minutes and 24 hours after initiation of reperfusion. To determine the degree of graft injury at 24 hours after initiation of reperfusion, blood levels of aspartate aminotransferase (AST), alanine aminotransferase (ALT) and LDH were measured in a standard manner. […]

[6] = tested on: liver parenchymal cells; experiment: Immunohistological detection of bilirubin in graft tissue with monoclonal antibody 24G7; assay type: in vivo, rat
Protocol: To examine the effect of bilirubin washing on the accessibility of bilirubin to graft tissues, immunohistological detection of bilirubin was performed using the anti-bilirubin-IXα monoclonal antibody 24G7 according to a previously reported method of the inventors (see Document 27). As observed in the grafts perfused with bilirubin-free lactated Ringer's solution (A), the monoclonal antibody 24G7 triggered an immune reaction primarily in liver non-parenchymal cells including Kupffer cells.

[7] = tested on: liver grafts; assay type: in vivo; conditions: grafts washed with 50 μmol/L bilirubin-containing Ringer's solution
Protocol: as §2, §3

[8] = tested on: liver grafts; experiment: Liver isograft transplantation model: bile output after initiation of reperfusion; assay type: in vivo, rat; conditions: grafts washed with Ringer's solution containing a higher concentration of bilirubin than 5 to 10 μmol/L
Protocol: as §2, §3

[9] = tested on: HO-1 protein; experiment: HO-1 protein expression in liver grafts by Western blot analysis; design: species or system rat; conditions: hemin-treated (40 μmol/kg i.p.) vs hemin-untreated grafts
Protocol: (§4) Male Wistar rats of 190-230 g were allowed to take pellet chow and water without any restriction and then fasted for 6 hours. Subsequently, the rats were intraperitoneally injected with 40 μmol/kg hemin, a strong HO-1 inducer, and then fasted for 18 hours. […] As a hemin-untreated control, rats injected with physiological saline were fasted for 24 hours and then used for the experiment.
as §1, with “hours.” for “hours. Since acute oxidative stress would eventually occur, as judged by intracellular hydroperoxide production which occurred concurrently with a reduction of bile formation, a time period of 16 hours was selected for preservation purposes.”
(§5) The grafts prepared in Example 1 were measured for HO-1 protein expression by Western blot analysis, as described in an earlier document (see Document 20). CO fluxes in hepatic venous flow were also measured with a spectrophotometer according to a previously reported method of the inventors (see Document 16). […]

[10] = tested on: liver grafts; experiment: CO fluxes in hepatic venous perfusate of ex vivo liver grafts (spectrophotometer); design: species or system rat
Protocol: as §4
as §1, with “hours.” for “hours. Since acute oxidative stress would eventually occur, as judged by intracellular hydroperoxide production which occurred concurrently with a reduction of bile formation, a time period of 16 hours was selected for preservation purposes.”
as §5

[11] = hemin-treated rats, n=4; cited from earlier work
[12] = hemin-treated grafts, 16-hour cold preservation, reperfused with 1 μmol/L of the protoporphyrin

Molecule: [C-]#[O+] [CO, carbon monoxide]
- recovery of ZnPP-induced reduction of bile output ([1]; hemin-treated C16 grafts, 30 minute co-perfusion, 1 μmol/L ZnPP, 5 μmol/L of each test substance): could not achieved
- percentage of bile output relative to reperfusion in the absence of ZnPP ([1]; hemin-treated C16 grafts, ZnPP, 30 minute reperfusion, concentration of 5 μmol/L or less): no recovery
- percentage of bile salts in bile relative to reperfusion in the absence of ZnPP [2]: no recovery
- percentage of phospholipids in bile relative to reperfusion in the absence of ZnPP [2]: no recovery

Molecule: C=CC1=C(C)c2cc3[n-]c(cc4[n-]c(cc5nc(cc1n2)C(C)=C5C=C)c(C)c4CCC(=O)O)c(CCC(=O)O)c3C.[Zn+2] [ZnPP, zinc protoporphyrin-IX]
- bilirubin levels in bile ([3]; hemin-treated C16 grafts, co-perfusion with 1 μmol/L ZnPP compared to CuPP): significant decrease
- bile output [1, 12]: reduced bile output; also recorded: canceled the effect of hemin treatment
- venous LDH release [4]: significantly increased

Molecule: C=CC1=C(C)/C(=C/c2[nH]c(Cc3[nH]c(/C=C4\NC(=O)C(C)=C4C=C)c(C)c3CCC(=O)O)c(CCC(=O)O)c2C)NC1=O [bilirubin]
- cell injury (sAST, sALT, sLDH) at 24 hours after transplantation [5]: exacerbation of cell injury
- accessibility of bilirubin to liver parenchymal cells (immune reaction) ([6]; grafts washed with bilirubin-containing Ringer's solution): highly absorbed into liver parenchymal cells
- accessibility of bilirubin to liver parenchymal cells (immune reaction) ([6]; grafts washed with bilirubin-containing Ringer's solution supplemented with PPF): accessibility of bilirubin was canceled
- rats able to survive for 24 hours after transplantation [7]: None
- adverse effect on bile secretion or cell survival ([1]; hemin-treated C16 grafts, 30 minutes, 5 μmol/L bilirubin in the presence of ZnPP): no adverse effect
- bile output vs bilirubin-free control ([1]; 15 minute reperfusion then 25 minutes without bilirubin): significant decrease
- bile output vs bilirubin-free control ([1]; 40 minute perfusion): significant decrease
- LDH release (graft damage) ([4]; hemin-untreated C16 grafts, prolonged reperfusion with 5 μmol/L bilirubin-containing buffer): increases in LDH release
- bile output after transplantation [8]: cholestasis occurred

Molecule: copper protoporphyrin-IX [CuPP]
- bile output [1, 12]: substantially the same bile output

Molecule: hemin
- HO-1 expression [9]: significant increases
- bilirubin fluxes in bile, relative to hemin-untreated group ([3]; hemin-treated, cold-preserved 16 hours, reperfused 30 minutes): about 1.5 fold
- bile output ([1]; hemin-treated grafts after 16-hour cold preservation (Hemin/C16) vs hemin-untreated cold-preserved grafts (C16)): higher plateau; also recorded: increase in bile output
- time of bile output recovery after initiation of reperfusion ([1]; hemin-treated grafts, 16-hour cold preservation (Hemin/C16)): 10 min
- venous CO fluxes ([10]; hemin-treated (40 μmol/kg i.p.) vs hemin-untreated grafts): significant increases
- increase in hepatic venous CO fluxes ([10]; hemin-treated grafts, 16-hour cold preservation with or without 30 minute reperfusion, vs hemin-untreated grafts): ~3 fold
- venous LDH release ([4]; hemin-treated control, 16-hour cold preservation (Hemin/C16), no ZnPP): almost complete inhibition
- plasma bilirubin concentration in portal blood [11]: 3.2 ± 0.8 µmol/L

From patent US20060110804A1, “Method of treating an organ for transplantation” (priority 2004, published 2006)
